{"source": "patent US7198796B2", "about": "“Antifungal parenteral products” (Vicuron Pharmaceuticals Inc., priority 2002, dated 2007)", "origin": "cited, not measured here", "note": "*1 amine or outer side, *2 acyl side, *3 side chain or, on linkers, in order; H or OH if unused. Where a SMILES comes first, the peptide text is derived from it. Bridges are numbered along the chain shown (N, C = ends). [ ]: non-standard residue; d: D form. The star is where a group is joined. ξ: configuration not given here. pTerphenylCO(4''-OnC5H11) = CCCCCOc1ccc(-c2ccc(-c3ccc(C(=O)*)cc3)cc2)cc1; ξOrn(4R-OH,5R-OH) = O=C(C(C[C@@H](O)[C@@H](O)N[*:3])N[*:1])[*:2]; hTyr(3S-OH,4S-OH) = N[C@H](C(=O)O)[C@H](O)[C@@H](O)c1ccc(O)cc1; Pro(3S-OH,4S-Me) = C[C@H]1CN[C@H](C(=O)O)[C@H]1O; Hyp = O=C(O)[C@@H]1C[C@@H](O)CN1"}
{"smiles": "CCCCCOc1ccc(-c2ccc(-c3ccc(C(=O)NC4C[C@@H](O)[C@@H](O)NC(=O)[C@@H]5[C@@H](O)[C@@H](C)CN5C(=O)[C@H]([C@@H](C)O)NC(=O)[C@H]([C@H](O)[C@@H](O)c5ccc(O)cc5)NC(=O)[C@@H]5C[C@@H](O)CN5C(=O)[C@H]([C@@H](C)O)NC4=O)cc3)cc2)cc1", "note": "(stereo partly drawn) [anidulafungin, 1-[(4R,5R)-4,5-Dihydroxy-N(2)-[[4″-(pentyloxy)[1,1′:4′,1″-terphenyl]-4-yl]carbonyl]-L-ornithine]echinocandin B] ({pTerphenylCO(4''-OnC5H11)}-[ξOrn(4R-OH,5R-OH)]T[Hyp][hTyr(3S-OH,4S-OH)]T[Pro(3S-OH,4S-Me)]; lactam 1-C)", "values": [{"measurement": "water solubility", "value": "less than 0.1 mg/ml"}]}
